Values of other authors in publication PMC5447021, “TNF Lectin-Like Domain Restores Epithelial Sodium Channel Function in Frameshift Mutants Associated with Pseudohypoaldosteronism Type 1B” (Frontiers in Immunology, 2017).

Target: T1, αβγ-hENaC (Homo sapiens, UniProt P37088+P51168+P51170)
T1 construct: expressed in transfected cells; host or cells: HEK-293
T1 sequence (P37088 1-669): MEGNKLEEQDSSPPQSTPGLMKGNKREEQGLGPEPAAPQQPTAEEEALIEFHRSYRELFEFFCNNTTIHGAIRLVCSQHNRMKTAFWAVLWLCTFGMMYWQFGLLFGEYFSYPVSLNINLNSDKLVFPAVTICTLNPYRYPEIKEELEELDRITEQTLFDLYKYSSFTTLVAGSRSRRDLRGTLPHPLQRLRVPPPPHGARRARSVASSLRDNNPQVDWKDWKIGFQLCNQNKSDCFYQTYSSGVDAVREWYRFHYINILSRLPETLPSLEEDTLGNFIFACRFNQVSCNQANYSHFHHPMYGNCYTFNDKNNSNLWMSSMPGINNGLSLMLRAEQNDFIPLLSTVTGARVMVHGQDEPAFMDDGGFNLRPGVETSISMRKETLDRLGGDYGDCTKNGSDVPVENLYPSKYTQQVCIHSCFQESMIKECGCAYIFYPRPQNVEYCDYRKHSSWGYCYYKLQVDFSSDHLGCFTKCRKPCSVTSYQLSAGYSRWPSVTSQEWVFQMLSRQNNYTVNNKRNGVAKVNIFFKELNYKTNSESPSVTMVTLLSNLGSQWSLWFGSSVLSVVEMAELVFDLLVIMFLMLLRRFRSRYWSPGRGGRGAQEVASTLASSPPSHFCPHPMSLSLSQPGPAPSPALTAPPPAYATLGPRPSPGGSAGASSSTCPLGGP
T1 sequence (P51168 1-640 partner): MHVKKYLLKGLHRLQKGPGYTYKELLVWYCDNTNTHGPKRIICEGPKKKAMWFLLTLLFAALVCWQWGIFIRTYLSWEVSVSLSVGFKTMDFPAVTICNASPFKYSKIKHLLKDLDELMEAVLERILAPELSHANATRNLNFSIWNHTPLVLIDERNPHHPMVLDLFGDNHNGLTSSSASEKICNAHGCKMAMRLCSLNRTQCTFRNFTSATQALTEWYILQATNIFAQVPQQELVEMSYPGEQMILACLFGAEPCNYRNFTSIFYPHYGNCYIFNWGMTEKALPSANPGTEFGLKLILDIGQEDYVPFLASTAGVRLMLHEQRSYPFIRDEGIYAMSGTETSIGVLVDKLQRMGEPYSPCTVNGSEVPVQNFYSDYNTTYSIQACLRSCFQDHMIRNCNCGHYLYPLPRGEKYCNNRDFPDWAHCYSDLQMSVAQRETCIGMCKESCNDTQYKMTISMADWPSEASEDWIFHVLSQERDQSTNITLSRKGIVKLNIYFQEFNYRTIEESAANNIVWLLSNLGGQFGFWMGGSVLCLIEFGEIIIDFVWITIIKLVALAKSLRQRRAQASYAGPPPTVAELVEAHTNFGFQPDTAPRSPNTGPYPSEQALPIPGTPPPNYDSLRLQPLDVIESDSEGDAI
T1 sequence (P51170 1-649 partner): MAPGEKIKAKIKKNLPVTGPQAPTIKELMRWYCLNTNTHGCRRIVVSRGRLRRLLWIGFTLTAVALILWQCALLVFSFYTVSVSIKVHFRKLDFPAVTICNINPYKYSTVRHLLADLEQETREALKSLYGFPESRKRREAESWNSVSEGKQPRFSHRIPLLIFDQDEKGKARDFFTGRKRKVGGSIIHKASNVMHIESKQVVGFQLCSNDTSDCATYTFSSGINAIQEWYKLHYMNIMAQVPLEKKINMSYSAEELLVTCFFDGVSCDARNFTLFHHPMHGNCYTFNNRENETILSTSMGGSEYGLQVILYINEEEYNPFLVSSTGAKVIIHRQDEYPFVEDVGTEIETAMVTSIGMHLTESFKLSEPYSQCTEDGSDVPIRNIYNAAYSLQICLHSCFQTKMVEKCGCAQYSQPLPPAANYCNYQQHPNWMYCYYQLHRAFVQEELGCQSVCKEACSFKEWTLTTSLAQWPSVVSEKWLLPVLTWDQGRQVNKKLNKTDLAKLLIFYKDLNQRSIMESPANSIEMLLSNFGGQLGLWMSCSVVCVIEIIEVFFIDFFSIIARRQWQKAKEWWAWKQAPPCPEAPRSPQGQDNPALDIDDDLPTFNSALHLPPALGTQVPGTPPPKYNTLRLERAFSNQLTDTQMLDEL
Design: method as in 2 sources, ref 16 = [16]; PMID 24077967; doi:10.1124/mol.113.089409; 16 Shabbir W Scherbaum-Hazemi P Tzotzos S Fischer B Fischer H Pietschmann H Mechanism of action of novel lung edema therapeutic AP301 by activation of the epithelial sodium channel . Mol Pharmacol ( 2 ||| ref 24 = [24]; PMID 20979368; doi:10.1021/jm100767p; 24 Hazemi P Tzotzos SJ Fischer B Andavan GS Fischer H Pietschmann H Essential structural features of TNF-α lectin-like domain derived peptides for activation of amiloride-sensitive sodium current in A
Details: αβγ-hENaC in HEK-293, whole-cell, -100 mV, amiloride-sensitive control current 75.8 ± 4.5 pA, mean ± S.E.; cited from earlier work

For `C[C@@H]1NC(=O)CNC(=O)[C@H](CCC(=O)O)NC(=O)[C@@H]2CCCN2C(=O)[C@H]([C@@H](C)O)NC(=O)[C@H](CCC(=O)O)NC(=O)[C@H](CCCNC(=N)N)NC(=O)[C@H](CCC(N)=O)NC(=O)CNC(=O)[C@@H](N)CSSC[C@@H](C(=O)O)NC(=O)[C@H](Cc2ccc(O)cc2)NC(=O)[C@H](Cc2c[nH]c3ccccc23)NC(=O)[C@@H]2CCCN2C(=O)[C@H](CCCCN)NC(=O)[C@H](C)NC(=O)[C@H](CCC(=O)O)NC1=O` [solnatide, L-cysteine, L-cysteinylglycyl-L-glutaminyl-L-arginyl-L-α-glutamyl-L-threonyl-L-prolyl-L-α-glutamylglycyl-L-alanyl-L-α-glutamyl-L-alanyl-L-lysyl-L-prolyl-L-tryptophyl-L-tyrosyl-, cyclic (1→17)-disulfide], the “Maximal induced current, solnatide” value is given as 953.2 ± 11.5 pA.
